Legend:
[1] = biological target: T1, AF9-YEATS (Homo sapiens, UniProt P42568); test: Peptide array-based binding assay, AF9-YEATS; conditions: 10 μM YEATS domain, 4 °C overnight, anti-GST/HRP chemiluminescence
T1 construct: For ITC experiments, the cDNAs encoding AF9-YEATS (residues 1–138) and YEATS2-YEATS (200–349) were inserted into the same vector; polyhistidine tag (N); GST (N); made in house
T1 sequence (P42568 1-138): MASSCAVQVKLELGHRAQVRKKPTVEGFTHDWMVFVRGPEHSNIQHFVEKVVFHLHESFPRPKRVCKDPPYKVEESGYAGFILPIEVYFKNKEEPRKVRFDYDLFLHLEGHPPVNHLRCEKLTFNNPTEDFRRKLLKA
Description: (§1) For the assay using the MODified Histone Peptide Array, the same cDNA sequences encoding human YEATS domains were amplified by PCR and subcloned into a pCR2.1 vector with a GST-encoding sequence inserted after an N-terminal polyhistidine tag. For microscale thermophoresis measurements, a similar construct but without GST was used. Site-directed mutagenesis of AF9-YEATS (residues 1–138) was conducted by PCR using the DpnI restriction enzyme and the following primer sets: 5′-CCTTCACGCATCCTTTCCTCGTCCTAAAC-3′ (forward) and 5′-GGAAAGGATGCGTGAAGGTGAAACACCAC-3′ (reverse) for E57A and 5′-CGACTATGACCTGTTTCTGCATCTCG-3′ (forward) and 5′-GCAGAAACAGTGCATAGTCGAAGCGAAC-3′ (reverse) for D103A. The introduced mutations were verified by DNA sequencing. For X-ray structural analysis, the cDNAs encoding AF9-YEATS (residues 1–138) and YEATS2-YEATS (202–338) were amplified by PCR and subcloned into the pCR2.1 vector encoding GST and the polyhistidine tag. […]
(§2) Assays were performed using the MODified Histone Peptide Array (Active Motif) following the manufacturer’s protocol. […] Protein binding was detected by Chemi-Lumi One Super (Nacalai Tesque). Signal intensities were quantified by using the Protein Array Analyzer for ImageJ (written by Gilles Carpentier, 2010. The macro is available online: http://rsb.info.nih.gov/ij/macros/toolsets/Protein Array Analyzer.txt).

[2] = tested on: ENL-YEATS; test: Peptide array-based binding assay, ENL-YEATS; set-up: species or system human; conditions: 10 μM YEATS domain, 4 °C overnight, anti-GST/HRP chemiluminescence
Description: as §1, §2

[3] = tested on: GAS41-YEATS; test: Peptide array-based binding assay, GAS41-YEATS; set-up: species or system human; conditions: 10 μM YEATS domain, 4 °C overnight, anti-GST/HRP chemiluminescence
Description: as §1, §2

[4] = biological target: YEATS2-YEATS; set-up: method as in 2 sources, one per row (each row's own in cited_ref): ref 50 = [50]; PMID 27103431; doi:10.1038/cr.2016.49; 50 Zhao D. Guan H. Zhao S. Mi W. Wen H. Li Y. YEATS2 is a selective histone crotonylation reader Cell Res. 26 2016 629 632 27103431 10.1038/cr.2016.49 PMC4856769 ||| ref 31 = [31]; PMID 29057918; doi:10.1038/s41467-017-01173-4; 31 Mi W. Guan H. Lyu J. Zhao D. Xi Y. Jiang S. YEATS2 links histone acetylation to tumorigenesis of non-small cell lung cancer Nat. Commun. 8 2017 1088 29057918 10.1038/s41467-017-01173-4 PMC5651844; conditions: cited from earlier work
[5] = tested on: HDAC6; conditions: 1 μM TSA, preincubated 37 °C 1 h, NCP monoacetylated at H4 K5, K8, K12 or K16, 16 h, dot blot
Description: First, we examined whether the reconstituted NCP with Kac is functional as a substrate for lysine deacetylases (KDACs) in vitro. We tested activity of histone deacetylase 6 (HDAC6) toward NCP-containing H4 with K5ac, K8ac, K12ac, or K16ac. […] Subsequently, we examined whether a HDAC-specific inhibitor, trichostatin A (TSA), inhibits deacetylation of Kac-containing NCPs.
The NCPs for deacetylation assays were reconstituted using unmodified H2B. In each deacetylation reaction, 200 ng of the Kac-containing NCP was incubated with 50, 100, 200, or 400 ng of HDAC6 (SignalChem; cat. no. H88-30 G) in 20 μl at 37 °C for 16 h. In the inhibitor assays, TSA was added to the reaction mixture not containing NCP to a final concentration of 1 μM and preincubated at 37 °C for 1 h; NCP monoacetylated either at K5, K8, K12, or K16 of H4 was then added. After the reactions, samples were spotted on a nitrocellulose membrane (BioTrace NT Nitrocellulose Transfer Membrane, 0.2 μm, Pall Corporation, cat. no. 66485) and immunoblotted using H4-specific antibodies, each recognizing acetylation at K5, K8, K12, or K16.

H4 (1–19) tail peptide diacetylated at K5/K8: peptide on MODified Histone Peptide Array (SGRGKGGKGLGKGGAKRHR; K5 and K8 acetylation; UniProt P62805 2-20, looked up, fragment)
binding on MODified Histone Peptide Array [1]: bound
binding on MODified Histone Peptide Array [2]: bound
binding on MODified Histone Peptide Array [3]: bound

K27-crotonylated H3 (1–34) peptide: K27-crotonylated H3 (1–34) peptide of ref 50
Kd [4]: 31.7 µM

trichostatin A [TSA]
inhibition of deacetylation by HDAC6 [5]: inhibited deacetylation of all four Kac residues by HDAC6
